Data reported in ChEMBL document CHEMBL1201862, “PubChem BioAssay data set” (2004).
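Interpolation was linear, between the two tested concentrations surrounding the appropriate level; five concentrations were tested over 48 hours in 96-well plates. The concentration for 50% growth inhibition is given as GI50.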 Calls of active or inactive are those of the source. Rule as the data show it: active = GI50 up to about 1.1 µM and inactive = higher.

What was measured:
Assay in all cases: inhibition of tumour cell growth, NCI panel, 48 h
[1] = test system: SK-OV-3
[2] = test system: SN12C
[3] = test system: HCT-116
[4] = test system: T47D
[5] = test system: SNB-75
[6] = test system: UACC-257
[7] = test system: OVCAR-3
[8] = test system: OVCAR-8
[9] = test system: EKVX
[10] = test system: HCT-15
[11] = test system: A498
[12] = test system: NCI-H522
[13] = test system: DU-145
[14] = test system: RXF 393
[15] = test system: SNB-19
[16] = test system: SF-268
[17] = test system: TK-10
[18] = test system: SR
[19] = test system: SF-295
[20] = test system: HOP-92

| SMILES | GI50 [1] | GI50 [2] | GI50 [3] | GI50 [4] | GI50 [5] | GI50 [6] | GI50 [7] | GI50 [8] | GI50 [9] | GI50 [10] | GI50 [11] | GI50 [12] | GI50 [13] | GI50 [14] | GI50 [15] | GI50 [16] | GI50 [17] | GI50 [18] | GI50 [19] | GI50 [20] |
| --- | --- | --- | --- | --- | --- | --- | --- | --- | --- | --- | --- | --- | --- | --- | --- | --- | --- | --- | --- | --- |
| CC(=O)OC(C)C1C2=C(C(=O)CC1(C)O)C(=O)c1c(ccc(-c3ccc4c(c3O)C(=O)C3=C(C4=O)C(C(C)OC(C)=O)C(C)(O)CC3=O)c1O)C2=O (stereo unspecified) | 10.8 µM (inactive) | 2.82 µM (inactive) | 0.521 µM (active) | 0.78 µM (active) | 2.49 µM (inactive) | 1.75 µM (inactive) | 2.2 µM (inactive) | 2.45 µM (inactive) | 4.36 µM (inactive) | 2.58 µM | 2.86 µM (inactive) | 1.56 µM (inactive) | 5.78 µM (inactive) | 1.74 µM (inactive) | 11.7 µM (inactive) | 2.95 µM (inactive) | 2.19 µM (inactive) | 1.1 µM (active) | 11.6 µM (inactive) | 1.57 µM (inactive) |
| O=Cc1[nH]c(=O)[nH]c(=O)c1CCl | > 100 µM (inactive) | > 100 µM (inactive) | 50.5 µM (inactive) | > 100 µM (inactive) | 10.9 µM (inactive) | > 100 µM (inactive) | > 100 µM (inactive) | > 82.4 µM (inactive) | > 100 µM (inactive) | > 65.8 µM | > 100 µM (inactive) | > 100 µM (inactive) | > 100 µM (inactive) | 71.6 µM (inactive) | > 100 µM (inactive) | > 59.3 µM (inactive) | > 100 µM (inactive) | 30.6 µM (inactive) | > 100 µM (inactive) | > 62.1 µM (inactive) |
| O=C1/C(=N/O)Cc2c(Br)ccc(Br)c21 | 37.2 µM (inactive) |  | 55.1 µM (inactive) | 51.3 µM (inactive) | > 100 µM (inactive) | 42.2 µM (inactive) | 22.3 µM (inactive) | 42.7 µM (inactive) | 28.2 µM (inactive) | 33.7 µM | 68.1 µM (inactive) | 27.5 µM (inactive) | 71.6 µM (inactive) | 99.3 µM (inactive) |  | 35.2 µM (inactive) | 48.4 µM (inactive) | 28.4 µM (inactive) | 34.6 µM (inactive) | > 100 µM (inactive) |
| CC(=O)c1ccc2c(c1)CC1(C2)Cc2ccc3c(c2C1=O)CCC3 (stereo unspecified) | 34.9 µM (inactive) | 31.8 µM (inactive) | 28.3 µM (inactive) | 12.5 µM (inactive) | 20 µM (inactive) | 10.8 µM (inactive) | 31 µM (inactive) |  |  | 25 µM | 39.3 µM (inactive) | 19.1 µM (inactive) | 31.3 µM (inactive) | 24.7 µM (inactive) | 53.1 µM (inactive) | 31.2 µM (inactive) | 24 µM (inactive) | 65.5 µM (inactive) | 31 µM (inactive) | 14.2 µM (inactive) |
| CC(C)OC(=O)[C@@H]1OC(C)(C)O[C@H]1C(=O)OC(C)C | > 100 µM (inactive) | > 100 µM (inactive) | > 100 µM (inactive) | > 100 µM (inactive) | > 100 µM (inactive) | > 100 µM (inactive) |  | > 100 µM (inactive) | > 100 µM (inactive) | > 100 µM | > 100 µM (inactive) | > 100 µM (inactive) | > 100 µM (inactive) | > 100 µM (inactive) | > 100 µM (inactive) | > 100 µM (inactive) | > 100 µM (inactive) | > 100 µM (inactive) | > 100 µM (inactive) | > 100 µM (inactive) |
| COc1cc(/C=C2\C(=O)N(c3ccc(NC(C)=O)cc3)C(c3ccccc3)S2(=O)=O)cc(OC)c1OC (stereo unspecified) | > 100 µM (inactive) | > 100 µM (inactive) | > 100 µM (inactive) | 28.6 µM (inactive) | 43.6 µM (inactive) | > 100 µM (inactive) | 93.3 µM (inactive) | > 100 µM (inactive) | 91.4 µM (inactive) | > 100 µM | > 100 µM (inactive) | > 100 µM (inactive) | > 100 µM (inactive) | > 100 µM (inactive) | > 100 µM (inactive) |  | > 100 µM (inactive) | 36.7 µM (inactive) | 78 µM (inactive) | > 100 µM (inactive) |
| Cn1c2ccccc2c2ccc3c(c21)C(=O)c1ccc2c4ccccc4n(C)c2c1C3=O | > 100 µM (inactive) | > 100 µM (inactive) | > 96.2 µM (inactive) | > 100 µM (inactive) | > 100 µM (inactive) | > 100 µM (inactive) | > 65 µM (inactive) | > 100 µM (inactive) | > 100 µM (inactive) | > 100 µM | > 100 µM (inactive) | > 100 µM (inactive) | > 100 µM (inactive) | > 100 µM (inactive) | > 100 µM (inactive) | > 100 µM (inactive) | > 100 µM (inactive) | > 100 µM (inactive) | > 100 µM (inactive) | > 100 µM (inactive) |
| C[C@]1(O)O[C@@H]2OCC[C@@H]2C2=C1C(=O)c1ccccc1C2=O | 21.9 µM (inactive) | 23 µM (inactive) |  | 18.3 µM (inactive) | 29.6 µM (inactive) | 17.1 µM (inactive) | 9.66 µM (inactive) | 15.3 µM (inactive) | 20 µM (inactive) | 19 µM | 14.1 µM (inactive) | 16.6 µM (inactive) | 16.7 µM (inactive) | 12.7 µM (inactive) | 18 µM (inactive) | 12.8 µM (inactive) | 20.4 µM (inactive) | 10.7 µM (inactive) | 18.7 µM (inactive) | 12.8 µM (inactive) |
| CC1(CNCc2ccccc2)CC(CCc2ccccc2)N(C(=O)c2ccc([N+](=O)[O-])cc2)C1Cc1ccc(O)cc1 (stereo unspecified) | 17.1 µM (inactive) | 6.76 µM (inactive) | 10.4 µM (inactive) | 5.32 µM (inactive) |  | 12.4 µM (inactive) | 12.1 µM (inactive) | 14.4 µM (inactive) | 14.4 µM (inactive) | 12.6 µM | 12.9 µM (inactive) | 8.79 µM (inactive) | 14.7 µM (inactive) | 5.04 µM (inactive) | 14.7 µM (inactive) | 13.4 µM (inactive) | 16.4 µM (inactive) | 6.75 µM (inactive) | 11.2 µM (inactive) | 2.04 µM (inactive) |
| COCCOCCOC1=CC(=O)c2c(O)ccc(O)c2C1=O | > 10 µM (inactive) | 1.96 µM (inactive) | 0.307 µM (active) | 1.82 µM (inactive) | 1.82 µM (inactive) | 0.397 µM (active) | 1.44 µM (inactive) |  | 2.86 µM (inactive) |  | 2.67 µM (inactive) | 1.57 µM (inactive) | 1.49 µM (inactive) | 2.07 µM (inactive) | 1.75 µM (inactive) | 2.59 µM (inactive) | 2.93 µM (inactive) | 1.19 µM (inactive) | 1.82 µM (inactive) | 2.18 µM (inactive) |
| Oc1ccccc1/C=N/c1nc2cc3sc(/N=C/c4ccccc4O)nc3cc2s1 | > 89.3 µM (inactive) | > 60.5 µM (inactive) | 38.9 µM (inactive) | > 61.1 µM (inactive) | > 78 µM (inactive) | > 100 µM (inactive) | > 100 µM (inactive) | > 100 µM (inactive) | 51.4 µM (inactive) | 19.2 µM | 26.3 µM (inactive) | 9.77 µM (inactive) | > 48.6 µM (inactive) | > 32.7 µM (inactive) | > 100 µM (inactive) | 50.9 µM (inactive) | > 86.9 µM (inactive) | 2.63 µM (inactive) | > 54.3 µM (inactive) | > 100 µM (inactive) |
| CC(C)=C=CC(C)(C)NS(=O)(=O)NC(C)(C)C=C=C(C)C | > 100 µM (inactive) | > 100 µM (inactive) | > 100 µM (inactive) | 15.7 µM (inactive) | 47.4 µM (inactive) | > 100 µM (inactive) | 71.3 µM (inactive) | > 100 µM (inactive) | > 100 µM (inactive) | > 100 µM | > 100 µM (inactive) | 56.6 µM (inactive) | > 100 µM (inactive) |  | > 100 µM (inactive) | 89.3 µM (inactive) | > 100 µM (inactive) | 18.4 µM (inactive) | > 100 µM (inactive) | > 100 µM (inactive) |
| COc1cc(NCc2ccc3n2-c2ccccc2OC3)cc(OC)c1OC |  | 17.5 µM (inactive) | 27.8 µM (inactive) | 37.2 µM (inactive) | 23.8 µM (inactive) | 20.1 µM (inactive) | 28.6 µM (inactive) | 31 µM (inactive) | 9.71 µM (inactive) | 29.9 µM | 13.5 µM (inactive) | 12.7 µM (inactive) | 72.1 µM (inactive) | 24.6 µM (inactive) | 69 µM (inactive) | 46.5 µM (inactive) | 32.5 µM (inactive) | 11.8 µM (inactive) | 23.8 µM (inactive) | 11 µM (inactive) |
| CSc1nc(C#N)c(/N=C\N(C)C)n1C | > 100 µM (inactive) | > 100 µM (inactive) | > 100 µM (inactive) | > 100 µM (inactive) |  | > 100 µM (inactive) | > 100 µM (inactive) | > 100 µM (inactive) | > 100 µM (inactive) | > 100 µM | > 100 µM (inactive) | > 100 µM (inactive) | > 100 µM (inactive) | > 100 µM (inactive) | > 100 µM (inactive) | > 100 µM (inactive) | > 100 µM (inactive) | > 100 µM (inactive) | > 100 µM (inactive) | > 100 µM (inactive) |
| C/C(=C\COc1ccc2ccc(=O)oc2c1)C1=CC(=O)C(C)(C)O1 [GEIPARVARIN] | 7.87 µM (inactive) | 3.94 µM (inactive) | 2.22 µM (inactive) | 3.68 µM (inactive) | 5.01 µM (inactive) | 4.69 µM (inactive) | 3.7 µM (inactive) | 7.11 µM (inactive) | 5.64 µM (inactive) | 3.04 µM | 4.6 µM (inactive) |  | 2.53 µM (inactive) | 2.01 µM (inactive) | 6.15 µM (inactive) | 3.93 µM (inactive) | 5.07 µM (inactive) | 1.68 µM (inactive) | 2.43 µM (inactive) | 3.76 µM (inactive) |
